Reference: ChEMBL document CHEMBL1136842, “5-Nitrofuran-2-yl derivatives: synthesis and inhibitory activities against growing and dormant mycobacterium species” (Bioorg Med Chem Lett, 2009)
In brackets after ≈: the same amount, converted by molar mass.

What was measured:
[1] = test system: Mycobacterium tuberculosis; test: Antimycobacterial activity against Mycobacterium tuberculosis H37Rv by agar dilution method; type: functional
[2] = test system: Mycolicibacterium smegmatis; test: Antimycobacterial activity against Mycobacterium smegmatis ATCC 14468 by agar dilution method; type: functional
[3] = test system: Mycolicibacterium fortuitum; test: Antimycobacterial activity against Mycobacterium fortuitum MTCC 951 by agar dilution method; type: functional
Mycolicibacterium phlei = test: Antimycobacterial activity against Mycobacterium phlei MTCC 1724 by agar dilution method; type: functional
Mycolicibacterium vaccae = test: Antimycobacterial activity against Mycobacterium vaccae MTCC 997 by agar dilution method; type: functional
Mycobacterium kansasii = test: Antimycobacterial activity against Mycobacterium kansasii MTCC 3058 by agar dilution method; type: functional
Vero = test: Cytotoxicity against african green monkey Vero cells after 72 hrs by MTT assay; type: cell-based; settings: Chlorocebus sabaeus
[4] = test system: Mycolicibacterium smegmatis; test: Antimycobacterial activity against log-phase culture of Mycobacterium smegmatis ATCC 14468 by agar dilution method; type: functional
[5] = test system: Mycolicibacterium smegmatis; test: Antimycobacterial activity against 6-week-starved culture of Mycobacterium smegmatis ATCC 14468 by agar dilution method; type: functional
[6] = test system: Mycobacterium tuberculosis; test: Antimycobacterial activity against log-phase culture of Mycobacterium tuberculosis H37Rv by agar dilution method; type: functional
[7] = test system: Mycobacterium tuberculosis; test: Antimycobacterial activity against 6-week-starved culture of Mycobacterium tuberculosis H37Rv by agar dilution method; type: functional
[8] = Ratio of IC50 for african green monkey Vero cells to MIC for Mycobacterium tuberculosis H37Rv; type: functional

SMILES | MIC [1] | MIC [2] | MIC [3] | MIC (Mycolicibacterium phlei) | MIC (Mycolicibacterium vaccae) | MIC (Mycobacterium kansasii) | IC50 (Vero) | MIC [4] | MIC [5] | MIC [6] | MIC [7] | Ratio [8]
O=[N+]([O-])c1ccc(/C=N/NC(=S)Nc2ccccn2)o1 | 12.1 µM (≈ 3.52 µg/mL) | 48.4 µM (≈ 14.1 µg/mL) | 48.4 µM (≈ 14.1 µg/mL) | 6 µM (≈ 1.75 µg/mL) | 24.2 µM (≈ 7.05 µg/mL) | 12.1 µM (≈ 3.52 µg/mL) | 214 µM | – | – | – | – | –
NS(=O)(=O)c1ccc(NC(=S)N/N=C/c2ccc([N+](=O)[O-])o2)cc1 | 2.1 µM (≈ 0.776 µg/mL) | 8.4 µM (≈ 3.1 µg/mL) | 33.8 µM (≈ 12.5 µg/mL) | 16.8 µM (≈ 6.21 µg/mL) | 2.1 µM (≈ 0.776 µg/mL) | 33.8 µM (≈ 12.5 µg/mL) | < 169 µM | 8.4 µM (≈ 3.1 µg/mL) | 75.6 µM (≈ 27.9 µg/mL) | – | – | –
O=[N+]([O-])c1ccc(/C=N/NC(=S)Nc2ccc(Cl)cn2)o1 | 1.2 µM (≈ 0.391 µg/mL) | 2.4 µM (≈ 0.782 µg/mL) | 38.3 µM (≈ 12.5 µg/mL) | 38.3 µM (≈ 12.5 µg/mL) | 4.8 µM (≈ 1.56 µg/mL) | 4.8 µM (≈ 1.56 µg/mL) | 192 µM | 2.4 µM (≈ 0.782 µg/mL) | 43.2 µM (≈ 14.1 µg/mL) | 1.2 µM (≈ 0.391 µg/mL) | 38.3 µM (≈ 12.5 µg/mL) | –
Cc1ccnc(NC(=S)N/N=C/c2ccc([N+](=O)[O-])o2)c1 | 2.6 µM (≈ 0.794 µg/mL) | 20.5 µM (≈ 6.26 µg/mL) | 5.1 µM (≈ 1.56 µg/mL) | 5.1 µM (≈ 1.56 µg/mL) | 2.6 µM (≈ 0.794 µg/mL) | 5.1 µM (≈ 1.56 µg/mL) | < 205 µM | – | – | – | – | –
Cc1cccnc1NC(=S)N/N=C/c1ccc([N+](=O)[O-])o1 | 5.1 µM (≈ 1.56 µg/mL) | 20.5 µM (≈ 6.26 µg/mL) | 10.2 µM (≈ 3.11 µg/mL) | 10.2 µM (≈ 3.11 µg/mL) | 20.5 µM (≈ 6.26 µg/mL) | 5.1 µM (≈ 1.56 µg/mL) | < 205 µM | – | – | – | – | –
CO[C@H]1/C=C/O[C@@]2(C)Oc3c(C)c(O)c4c(O)c(c(/C=N/N5CCN(C)CC5)c(O)c4c3C2=O)NC(=O)/C(C)=C\C=C\[C@H](C)[C@H](O)[C@@H](C)[C@@H](O)[C@@H](C)[C@H](OC(C)=O)[C@@H]1C [RIFAMPIN] | 0.23 µM (≈ 0.189 µg/mL) | 1.89 µM (≈ 1.56 µg/mL) | 1.89 µM (≈ 1.56 µg/mL) | 30.4 µM (≈ 25 µg/mL) | 3.8 µM (≈ 3.13 µg/mL) | 7.59 µM (≈ 6.25 µg/mL) | > 75.9 µM | 1.89 µM (≈ 1.56 µg/mL) | 22.6 µM (≈ 18.6 µg/mL) | 0.23 µM (≈ 0.189 µg/mL) | 15.2 µM (≈ 12.5 µg/mL) | –
O=[N+]([O-])c1ccc(/C=N/NC(=S)Nc2ccc(Cl)cc2)o1 | 1.23 µM (≈ 0.399 µg/mL) | 19.1 µM (≈ 6.2 µg/mL) | 38.4 µM (≈ 12.5 µg/mL) | 9.6 µM (≈ 3.12 µg/mL) | 9.6 µM (≈ 3.12 µg/mL) | 38.4 µM (≈ 12.5 µg/mL) | > 192 µM | 19.1 µM (≈ 6.2 µg/mL) | 134 µM (≈ 43.4 µg/mL) | – | – | –
Cc1ccc(NC(=S)N/N=C/c2ccc([N+](=O)[O-])o2)c(C)c1 | 2.45 µM (≈ 0.78 µg/mL) | 314 µM (≈ 100 µg/mL) | 39.2 µM (≈ 12.5 µg/mL) | 4.9 µM (≈ 1.56 µg/mL) | 39.2 µM (≈ 12.5 µg/mL) | 9.8 µM (≈ 3.12 µg/mL) | > 196 µM | – | – | – | – | –
Cc1cccc(C)c1NC(=S)N/N=C/c1ccc([N+](=O)[O-])o1 | 4.9 µM (≈ 1.56 µg/mL) | 39.2 µM (≈ 12.5 µg/mL) | 39.2 µM (≈ 12.5 µg/mL) | 9.8 µM (≈ 3.12 µg/mL) | 39.2 µM (≈ 12.5 µg/mL) | 39.2 µM (≈ 12.5 µg/mL) | > 196 µM | – | – | – | – | –
O=[N+]([O-])c1ccc(/C=N/NC(=S)Nc2ncc(Br)cc2Br)o1 | 0.22 µM (≈ 0.0988 µg/mL) | 6.9 µM (≈ 3.1 µg/mL) | 3.4 µM (≈ 1.53 µg/mL) | 6.9 µM (≈ 3.1 µg/mL) | 3.4 µM (≈ 1.53 µg/mL) | 1.7 µM (≈ 0.763 µg/mL) | 139 µM | 6.9 µM (≈ 3.1 µg/mL) | 124 µM (≈ 55.8 µg/mL) | 0.22 µM (≈ 0.0988 µg/mL) | 13.9 µM (≈ 6.24 µg/mL) | 632.2
O=[N+]([O-])c1ccc(/C=N/NC(=S)Nc2ccccc2Br)o1 | 0.54 µM (≈ 0.199 µg/mL) | 33.8 µM (≈ 12.5 µg/mL) | 33.8 µM (≈ 12.5 µg/mL) | 16.9 µM (≈ 6.24 µg/mL) | 16.9 µM (≈ 6.24 µg/mL) | 8.4 µM (≈ 3.1 µg/mL) | > 169 µM | – | – | 0.54 µM (≈ 0.199 µg/mL) | 33.8 µM (≈ 12.5 µg/mL) | –
Cc1ccc(C)c(NC(=S)N/N=C/c2ccc([N+](=O)[O-])o2)c1 | 1.2 µM (≈ 0.382 µg/mL) | 157 µM (≈ 50 µg/mL) | 78.5 µM (≈ 25 µg/mL) | 4.8 µM (≈ 1.53 µg/mL) | 2.4 µM (≈ 0.764 µg/mL) | 78.5 µM (≈ 25 µg/mL) | > 196 µM | – | – | 1.1 µM (≈ 0.35 µg/mL) | 154 µM (≈ 49 µg/mL) | –
O=[N+]([O-])c1ccc(/C=N/NC(=S)Nc2ccccc2)o1 | 10.7 µM (≈ 3.11 µg/mL) | 172 µM (≈ 50 µg/mL) | 43 µM (≈ 12.5 µg/mL) | 10.7 µM (≈ 3.11 µg/mL) | 43 µM (≈ 12.5 µg/mL) | 5.3 µM (≈ 1.54 µg/mL) | > 215 µM | – | – | – | – | –
COc1ccc(NC(=S)N/N=C/c2ccc([N+](=O)[O-])o2)cc1 | 9.7 µM (≈ 3.11 µg/mL) | 39 µM (≈ 12.5 µg/mL) | 39 µM (≈ 12.5 µg/mL) | 4.85 µM (≈ 1.55 µg/mL) | 78 µM (≈ 25 µg/mL) | 39 µM (≈ 12.5 µg/mL) | > 195 µM | – | – | – | – | –
Cc1cc(C)nc(NC(=S)N/N=C/c2ccc([N+](=O)[O-])o2)c1 | 2.4 µM (≈ 0.766 µg/mL) | 4.8 µM (≈ 1.53 µg/mL) | 39.1 µM (≈ 12.5 µg/mL) | 39.1 µM (≈ 12.5 µg/mL) | 39.1 µM (≈ 12.5 µg/mL) | 39.1 µM (≈ 12.5 µg/mL) | < 196 µM | 4.8 µM (≈ 1.53 µg/mL) | 91.2 µM (≈ 29.1 µg/mL) | – | – | –
Cc1ccc(NC(=S)N/N=C/c2ccc([N+](=O)[O-])o2)cc1 | 5.1 µM (≈ 1.55 µg/mL) | 41 µM (≈ 12.5 µg/mL) | 41 µM (≈ 12.5 µg/mL) | 2.5 µM (≈ 0.761 µg/mL) | 41 µM (≈ 12.5 µg/mL) | 20.5 µM (≈ 6.24 µg/mL) | > 205 µM | – | – | – | – | –
CCc1cccc(CC)c1NC(=S)N/N=C/c1ccc([N+](=O)[O-])o1 | 1.1 µM (≈ 0.381 µg/mL) | 36 µM (≈ 12.5 µg/mL) | 72.1 µM (≈ 25 µg/mL) | 36 µM (≈ 12.5 µg/mL) | 72.1 µM (≈ 25 µg/mL) | 36 µM (≈ 12.5 µg/mL) | > 180 µM | – | – | 1.2 µM (≈ 0.416 µg/mL) | 36 µM (≈ 12.5 µg/mL) | –
O=C(O)c1cn(C2CC2)c2cc(N3CCNCC3)c(F)cc2c1=O [CIPROFLOXACIN] | – | 2.35 µM (≈ 0.779 µg/mL) | – | – | – | 9.45 µM (≈ 3.13 µg/mL) | > 188 µM | – | – | – | – | –
NNC(=O)c1ccncc1 [ISONIAZID] | 0.66 µM (≈ 0.0905 µg/mL) | 45.6 µM (≈ 6.25 µg/mL) | 22.8 µM (≈ 3.13 µg/mL) | 91.2 µM (≈ 12.5 µg/mL) | 182 µM (≈ 25 µg/mL) | 182 µM (≈ 25 µg/mL) | > 456 µM | 45.6 µM (≈ 6.25 µg/mL) | > 729 µM | 0.66 µM (≈ 0.0905 µg/mL) | 729 µM (≈ 100 µg/mL) | –
COc1ccc(NC(=S)N/N=C/c2ccc([N+](=O)[O-])o2)c(OC)c1 | 4.4 µM (≈ 1.54 µg/mL) | 35.6 µM (≈ 12.5 µg/mL) | 35.6 µM (≈ 12.5 µg/mL) | 4.4 µM (≈ 1.54 µg/mL) | 71.1 µM (≈ 24.9 µg/mL) | 35.6 µM (≈ 12.5 µg/mL) | > 178 µM | – | – | – | – | –
